Experimental data from patent US20040141944A1, “Inhibition of xenoreactive antibodies” (priority 1998, published 2004).

Experiments:
IgM XNAs = assay: effect of TPC on xenoreactive antibody level in baboons; assay type: in vivo, baboon
From the text: The TPC molecule 410S was synthesized as described in Example 5 above. Baboons were first immunoapheresed using α-gal-columns in order to remove circulating αGal antibodies, and to set a basis for comparison of the ability of TPC to remove αGal antibodies from the circulation.
The procedures for treating and transplanting the baboons are described in Shu S. Lin et al., Transplant Immunol. 5:212-218, 1997. Descriptions of methods for making αGal-columns are contained in U.S. Pat. Nos. 5,695,759 and 5,651,968, which are herein incorporated by reference. Briefly, each baboon subject was prepared for plasma treatment by induction of anesthesia with ketamine HCl and pentamine, and anesthesia was then maintained during all procedures under inhalation and Forane™ gas. The subject's bloodstream was asceptically connected by intravenous puncture to a plasmapheresis machine which separated the plasma from the cells and platelets. The plasma was asceptically conducted to an α-gal column; effluent from the column was pumped and remixed on-line with the cells and platelets, and reinfused to the subject. This procedure was carried out continuously for 2-3 plasma volumes. The blood flow rate of 75-100 cc/min (with a plasma flow rate of 35-50 cc/min), was well tolerated by the subject. The entire column procedure lasted 1-1.5 hours.
250 mg of TPC (410S, as described in Example 5 above) was administered as noted in FIGS. 12 and 13.

Purified CD19+B cells = assay: effect of TPC on T cell-independent anti-Gal B cell activation (ELISPOT); assay type: cell-based; conditions: TPC (410S) 1 mg/mL pretreatment 30 min or 50 ug/mL daily; 5 day culture with SAC, IL-2, IL-4, anti-CD40
Procedure: To each well of the first 10 columns of a sterile hydrazine modified polystyrene 96-well plate (Corning Costar, Cambridge, Mass.), 100 μL per well of a solution containing 3.2 mg/mL αGal(1,3)Gal β 1-4 GlcNAc, 3.1 mg/mL EDC and 2.4 mg/mL NHS were added in a darkened cold room and the reaction proceeded for four hours. After careful washing with sterile H2O, the plates were completely covered with plastic strips and stored at 4° C. until use. Plates were blocked with sterile 400 ul/well of PBS/1% HSA for 2 hours at 37° C. Peripheral blood mononuclear cells were isolated by Ficoll-Hypaque (specific gravity, 1.077 g/mL; Pharmacia Fine Chemicals, Piscatawy, N.J.) density gradients at 400 g for 30 min. at 22° C. […] Plates were incubated overnight in the dark at room temperature and single Ab-secreting, spot forming cells (ASC) were visualized, analyzed and counted under low magnification using an inverted phase microscope. Data represents total isotype specific anti-gal Ab-secreting cells/10^6 PBMNCs, calculated from serially diluted cell samples.
Purified CD19+B cells were obtained by positive selection with the use of anti-CD19+ immunomagnetic beads (Pan-B (CD19); Dynal, Lake Success, N.Y.). […] Following the 5 day culture period, cells were washed extensively, counted, viability determined and the number of ASC determined using the anti-Gal ELISPOT assay. […]

[1] = system: kidney from a transgenic pig expressing human CD59, human CD46 and human DAF; assay: transgenic pig kidney transplant into TPC-treated baboon; assay type: in vivo
Procedure: Immunoapheresis #1 reduced circulating IgM XNA levels to 40% of pretreatment levels. Two days later, a rebound to about 50% of pretreatment levels was observed, and after a second immunoapheresis plus administration of 250 mg TPC, circulating IgM xXNA levels were undetectable. Three days later, a rebound in IgM XNA to 35% pretreatment levels occurred, and administration of 250 mg TPC brought these levels to about 5%. […] On day 31, a kidney from a transgenic pig expressing human CD59, human CD46 and human DAF was transplanted into the baboon, and a bilateral nephrectomey was performed on the baboon native kidneys. Thus, the baboon was dependent upon the porcine kidneys for physiological function.

## (αGal(1,3)Gal β 1-4 GlcNAc)4-PEG [Example 410S]
IgM XNAs; Baboon 376-96, after next administration of 250 mg TPC
  IgM XNA, % pretreatment levels: about 5%
IgM XNAs; Baboon 376-96, after second immunoapheresis plus 250 mg TPC
  circulating IgM XNA levels: undetectable
IgM XNAs; Baboon 376-96, six subsequent administrations of 250 mg TPC every 3 or 4 days
  circulating levels of IgM XNA: lower each time
IgM XNAs; Baboon 376-96, three days after first TPC (rebound)
  IgM XNA, % pretreatment levels: 35%
IgM XNAs; Baboon 377-96, infusion of 250 mg TPC after third immunoapheresis
  levels of IgM XNAs: undetectable
IgM XNAs; Baboon 377-96, three days after the 250 mg TPC infusion (rebound)
  IgM XNA levels, % pretreatment levels: about 15%
Purified CD19+B cells
  effect on the number of detectable ASCs: no effect
  effect on total cell yield and viability: no effect
[1]; Baboon 376-96, transplant on day 31, euthanized post-op day 4
  pathology analysis of the explanted pig kidney: no evidence of hyperacute rejection
[1]; Baboon 376-96, transplant on day 31 with bilateral nephrectomy
  function of the transplanted kidney: primary nonfunction
